Series [1] has as its target T1, human GIP R (Homo sapiens, UniProt P48546).
T1 construct: expressed in transfected cells
T1 sequence (P48546 22-466): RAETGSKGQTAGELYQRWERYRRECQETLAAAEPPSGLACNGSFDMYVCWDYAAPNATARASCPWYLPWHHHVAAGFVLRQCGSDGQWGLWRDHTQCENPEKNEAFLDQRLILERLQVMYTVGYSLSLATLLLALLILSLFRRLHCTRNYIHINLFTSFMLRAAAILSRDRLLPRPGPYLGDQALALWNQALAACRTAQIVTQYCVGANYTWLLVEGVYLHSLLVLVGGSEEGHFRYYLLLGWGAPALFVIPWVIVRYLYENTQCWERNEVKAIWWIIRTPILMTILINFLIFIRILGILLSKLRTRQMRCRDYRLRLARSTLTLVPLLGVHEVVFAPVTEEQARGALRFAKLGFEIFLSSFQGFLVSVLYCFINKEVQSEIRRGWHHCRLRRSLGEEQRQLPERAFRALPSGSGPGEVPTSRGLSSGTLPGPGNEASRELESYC
The experiment in a line: Human GIP receptor (GIP R) activity assay, cAMP induction (AlphaScreen) in HEK293 cells. The format is cell-based. Particulars: read-out: hGIP-R cAMP EC50 average value. An outline of the steps:
(§1)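 Stable HEK293 clones expressing human GIP R or GLP-1 R, seeded 1 day before; cells washed in Tyrode's buffer (10 mM HEPES, pH 7.4), stimulated, then lysed. cAMP measured by AlphaScreen bead competition (1 h, room temperature, dark). EC50 = concentration giving half-maximal cAMP elevation, from curves of absolute cAMP (nM) vs log concentration.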
Background: Bead proximity is the source of the signal in Alpha formats.

The target of series [2] is T2, human GLP-1 R (Homo sapiens, UniProt P43220).
T2 construct: expressed in transfected cells
T2 sequence (P43220 24-463): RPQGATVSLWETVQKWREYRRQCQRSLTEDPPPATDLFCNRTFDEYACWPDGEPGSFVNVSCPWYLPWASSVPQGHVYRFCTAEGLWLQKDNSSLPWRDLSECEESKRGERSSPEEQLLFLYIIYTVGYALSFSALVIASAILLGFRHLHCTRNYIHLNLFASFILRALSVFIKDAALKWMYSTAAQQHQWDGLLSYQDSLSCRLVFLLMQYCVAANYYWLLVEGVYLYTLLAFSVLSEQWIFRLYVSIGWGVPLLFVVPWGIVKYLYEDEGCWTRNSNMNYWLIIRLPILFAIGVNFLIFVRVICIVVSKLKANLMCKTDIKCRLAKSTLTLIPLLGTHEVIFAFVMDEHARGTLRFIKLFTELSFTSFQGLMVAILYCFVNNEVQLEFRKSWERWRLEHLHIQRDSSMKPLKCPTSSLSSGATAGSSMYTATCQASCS
Briefly: Human GLP-1 receptor (GLP-1 R) activity assay, cAMP induction (AlphaScreen) in HEK293 cells. The format is cell-based. An outline of the steps:
as §1

Series [3] in a line: Pharmacokinetics of selected compounds in mice. Particulars: mouse, plasma; for bioavailability: subcutaneous, AUCinf (s.c.)/AUCinf (i.v.)x100, values marked * capped to 100%. The format is in vivo, C57BL/6J mice. As for the experimental part: Pharmacokinetics of Selected Compounds in Mice
C57BL/6J mice (males with a body weight of approximately 25 g) were given either a single subcutaneous (s.c.) bolus or a single intravenous (i.v.) bolus of each peptide to be tested.
Following s.c. administration of the selected compounds (50, 100 or 200 nmol/kg), blood samples were drawn at 8 (eight) timepoints up to 72 hours post-dose. Following i.v. administration of the selected compounds (50, 100 or 200 nmol/kg), blood samples were drawn at 8 (eight) timepoints up to 48 hours post-dose. Blood samples were drawn by sublingual bleeding. The dosing vehicle was a phosphate buffer containing mannitol (pH 7.5).
At each sampling time point, samples from two mice were drawn, i.e. 16 mice were included for each compound and each administration route. The mice were euthanized immediately after blood sampling by cervical dislocation. Plasma samples were analyzed after solid phase extraction (SPE) or protein precipitation followed by liquid chromatography mass spectrometry (LC-MS/MS). Mean plasma concentrations were used for calculation of the pharmacokinetic parameters using the non-compartmental approach in Phoenix WinNonlin 6.3. Plasma terminal elimination half-life (T½) was determined as […] where λz is the magnitude of the slope of the log linear regression of the log concentration versus time profile during the terminal phase. Bioavailability was determined as AUCinf (s.c.)/AUCinf (i.v.)×100, where AUCinf is the area under the plasma concentration−time curve extrapolated to infinity (AUCinf=AUClast+Clast/λz, where Clast is the last observed plasma concentration). Tmax is the post-dose time where the maximal plasma concentration was observed.

Where [4] appears, read: Table 2, HEK293 cells expressing human GIP R.
Where [5] appears, read: Table 2a, secondary assay study.
Where [6] appears, read: Table 3, most comprehensive data.
[7] abbreviates: Table 2, HEK293 cells expressing human GLP-1 R, read-out: hGLP1-R cAMP EC50 average value.
[8] abbreviates: Table 2a, secondary assay study, read-out: hGLP1-R cAMP EC50 average value.
Setting [9] is: male, C57BL/6J, iv, single i.v. bolus, read-out: T½ terminal elimination half-life, i.v. (converted).
Setting [10] is: male, C57BL/6J, sc, single s.c. bolus.

Each structure is given as a SMILES string. Where two headings read alike, the source gives them in different places. *1 amine or outer side, *2 acyl side, *3 side chain or, on linkers, in order; H or OH if unused. Where a SMILES comes first, the peptide text is derived from it. Side-chain parts run from the residue outwards. [ ]: non-standard residue; d: D form. The star is where a group is joined. C20 diacid = O=C(O)CCCCCCCCCCCCCCCCCCC(=O)*; C18 diacid = O=C(O)CCCCCCCCCCCCCCCCC(=O)*; γGlu = O=C(O)[C@H](CCC(=O)[*:2])N[*:1]; AEEA = NCCOCCOCC(=O)O; Aib = CC(C)(N)C(=O)O

In general, EC50 refers to the concentration at which the effect is half-maximal. The term half-life denotes how long it takes for the measured level to halve. Usually bioavailability stands for dose-corrected exposure relative to a reference, in per cent. The term Tmax denotes the time from dosing to the highest level.

Regarding `CC[C@H](C)[C@H](NC(=O)[C@H](CO)NC(=O)[C@H](Cc1ccc(O)cc1)NC(=O)[C@H](CC(=O)O)NC(=O)[C@H](CO)NC(=O)[C@@H](NC(=O)[C@H](Cc1ccccc1)NC(=O)[C@@H](NC(=O)CNC(=O)[C@H](CCC(=O)O)NC(=O)C(C)(C)NC(=O)[C@@H](N)Cc1ccc(O)cc1)[C@@H](C)O)[C@@H](C)O)C(=O)N[C@@H](Cc1ccc(O)cc1)C(=O)N[C@@H](CC(C)C)C(=O)N[C@@H](CC(=O)O)C(=O)N[C@@H](CCCCN)C(=O)N[C@@H](CCCCNC(=O)CC[C@H](NC(=O)CCCCCCCCCCCCCCCCC(=O)O)C(=O)O)C(=O)N[C@@H](C)C(=O)N[C@@H](CCC(N)=O)C(=O)N[C@@H](CCCNC(=N)N)C(=O)N[C@@H](C)C(=O)N[C@@H](Cc1ccccc1)C(=O)N[C@H](C(=O)N[C@@H](CCC(=O)O)C(=O)N[C@@H](Cc1c[nH]c2ccccc12)C(=O)N[C@@H](CC(C)C)C(=O)N[C@@H](CC(C)C)C(=O)N[C@@H](C)C(=O)N[C@@H](CCC(N)=O)C(=O)NCC(=O)N1CCC[C@H]1C(=O)N[C@@H](CO)C(=O)N[C@@H](CO)C(=O)NCC(=O)N[C@@H](C)C(=O)N1CCC[C@H]1C(=O)N1CCC[C@H]1C(=O)N1CCC[C@H]1C(=O)N[C@@H](CO)C(N)=O)C(C)C` [Compound 3] (H-Y[Aib]EGTFTSDYSIYLDKK([γGlu-C18 diacid])AQRAFVEWLLAQGPSSGAPPPS-NH2), the half-maximal effective concentration (EC50) in series [1] (setting [4]) was 8.6 pM; in series [1] (setting [5]), 9 pM; in series [1] (setting [6]), 9 pM; in series [2] (setting [7]), 11 pM; in series [2] (setting [8]), 11 pM. The half-life in series [3] (setting [9]) was 9.1 h. The molecule also returned a bioavailability in series [3] (male, C57BL/6J) of 89%. Also, the Tmax in series [3] (setting [10]) stood at 8 h.
Take `CC[C@H](C)[C@H](NC(=O)[C@H](CO)NC(=O)[C@H](Cc1ccc(O)cc1)NC(=O)[C@H](CC(=O)O)NC(=O)[C@H](CO)NC(=O)[C@@H](NC(=O)[C@H](Cc1ccccc1)NC(=O)[C@@H](NC(=O)CNC(=O)[C@H](CCC(=O)O)NC(=O)C(C)(C)NC(=O)[C@@H](N)Cc1ccc(O)cc1)[C@@H](C)O)[C@@H](C)O)C(=O)N[C@@H](Cc1ccc(O)cc1)C(=O)N[C@@H](CC(C)C)C(=O)N[C@@H](CC(=O)O)C(=O)N[C@@H](CCCCN)C(=O)N[C@@H](CCCCNC(=O)CNC(=O)CNC(=O)[C@H](CO)NC(=O)CNC(=O)[C@H](CO)NC(=O)CNC(=O)CC[C@H](NC(=O)CCCCCCCCCCCCCCCCC(=O)O)C(=O)O)C(=O)N[C@@H](C)C(=O)N[C@@H](CCC(N)=O)C(=O)N[C@@H](CCCNC(=N)N)C(=O)N[C@@H](C)C(=O)N[C@@H](Cc1ccccc1)C(=O)N[C@H](C(=O)N[C@@H](CCC(=O)O)C(=O)N[C@@H](Cc1c[nH]c2ccccc12)C(=O)N[C@@H](CC(C)C)C(=O)N[C@@H](CC(C)C)C(=O)N[C@@H](C)C(=O)N[C@@H](CCC(N)=O)C(=O)NCC(=O)N1CCC[C@H]1C(=O)N[C@@H](CO)C(=O)N[C@@H](CO)C(=O)NCC(=O)N[C@@H](C)C(=O)N1CCC[C@H]1C(=O)N1CCC[C@H]1C(=O)N1CCC[C@H]1C(=O)N[C@@H](CO)C(N)=O)C(C)C` [Compound 4]: the EC50 in series [1] (setting [4]) came out at 8.7 pM; in series [1] (setting [5]), 9 pM; in series [1] (setting [6]), 9 pM; in series [2] (setting [7]), 10 pM. For the same molecule, the half-life in series [3] (iv, single i.v. bolus, read-out: T½ terminal elimination half-life, i.v. (converted)) was 8.7 h; in series [3] (sc, single s.c. bolus, read-out: T½ terminal elimination half-life, s.c. (converted)), 10.8 h. In addition, in series [3], the bioavailability came to 100%. Moreover, the Tmax in series [3] (sc, single s.c. bolus) was 6 h.
Regarding `CC[C@H](C)[C@H](NC(=O)[C@H](CO)NC(=O)[C@H](Cc1ccc(O)cc1)NC(=O)[C@H](CC(=O)O)NC(=O)[C@H](CO)NC(=O)[C@@H](NC(=O)[C@H](Cc1ccccc1)NC(=O)[C@@H](NC(=O)CNC(=O)[C@H](CCC(=O)O)NC(=O)C(C)(C)NC(=O)[C@@H](N)Cc1ccc(O)cc1)[C@@H](C)O)[C@@H](C)O)C(=O)N[C@@H](Cc1ccc(O)cc1)C(=O)N[C@@H](CC(C)C)C(=O)N[C@@H](CC(=O)O)C(=O)N[C@@H](CCCCN)C(=O)N[C@@H](CCCCNC(=O)COCCOCCNC(=O)COCCOCCNC(=O)COCCOCCNC(=O)CC[C@H](NC(=O)CCCCCCCCCCCCCCCCCCC(=O)O)C(=O)O)C(=O)N[C@@H](C)C(=O)N[C@@H](CCC(N)=O)C(=O)N[C@@H](CCCNC(=N)N)C(=O)N[C@@H](C)C(=O)N[C@@H](Cc1ccccc1)C(=O)N[C@H](C(=O)N[C@@H](CCC(=O)O)C(=O)N[C@@H](Cc1c[nH]c2ccccc12)C(=O)N[C@@H](CC(C)C)C(=O)N[C@@H](CC(C)C)C(=O)N[C@@H](C)C(=O)N[C@@H](CCC(N)=O)C(=O)NCC(=O)N1CCC[C@H]1C(=O)N[C@@H](CO)C(=O)N[C@@H](CO)C(=O)NCC(=O)N[C@@H](C)C(=O)N1CCC[C@H]1C(=O)N1CCC[C@H]1C(=O)N1CCC[C@H]1C(=O)N[C@@H](CO)C(N)=O)C(C)C` [Compound 8] (H-Y[Aib]EGTFTSDYSIYLDKK([AEEA-AEEA-AEEA-γGlu-C20 diacid])AQRAFVEWLLAQGPSSGAPPPS-NH2), the EC50 in series [1] (setting [4]) was 5.3 pM; in series [1] (setting [5]), 5 pM; in series [1] (setting [6]), 5 pM; in series [2] (setting [7]), 12 pM; in series [2] (setting [8]), 12 pM. Besides, in series [3] (setting [9]), the half-life was 17.2 h. In addition, the bioavailability in series [3] (male, C57BL/6J) was found to be 54%. Further, the Tmax in series [3] (setting [10]) was determined as 8 h.
For `CC[C@H](C)[C@H](NC(=O)[C@H](CO)NC(=O)[C@H](Cc1ccc(O)cc1)NC(=O)[C@H](CC(=O)O)NC(=O)[C@H](CO)NC(=O)[C@@H](NC(=O)[C@H](Cc1ccccc1)NC(=O)[C@@H](NC(=O)CNC(=O)[C@H](CCC(=O)O)NC(=O)C(C)(C)NC(=O)[C@@H](N)Cc1ccc(O)cc1)[C@@H](C)O)[C@@H](C)O)C(=O)N[C@@H](C)C(=O)N[C@@H](CC(C)C)C(=O)N[C@@H](CC(=O)O)C(=O)N[C@@H](CCCCN)C(=O)N[C@@H](CCCCNC(=O)COCCOCCNC(=O)COCCOCCNC(=O)CC[C@H](NC(=O)CCCCCCCCCCCCCCCCCCC(=O)O)C(=O)O)C(=O)N[C@@H](C)C(=O)N[C@@H](CCC(N)=O)C(=O)N[C@@H](CCCNC(=N)N)C(=O)N[C@@H](C)C(=O)N[C@@H](Cc1ccccc1)C(=O)N[C@H](C(=O)N[C@@H](CC(N)=O)C(=O)N[C@@H](Cc1c[nH]c2ccccc12)C(=O)N[C@@H](CC(C)C)C(=O)N[C@H](C(=O)N[C@@H](C)C(=O)NC(C)(C)C(=O)N[C@@H](CCCCN)C(=O)N1CCC[C@H]1C(=O)N[C@@H](CO)C(=O)N[C@@H](CO)C(=O)NCC(=O)N[C@@H](C)C(=O)N1CCC[C@H]1C(=O)N1CCC[C@H]1C(=O)N1CCC[C@H]1C(=O)N[C@@H](CO)C(N)=O)C(C)C)C(C)C` [Compound 15], the half-maximal effective concentration (EC50) was determined as 8 pM in series [1] (setting [4]); 8 pM in series [1] (setting [6]); 8.8 pM in series [2] (setting [7]); 9 pM in series [2] (Table 3, most comprehensive data, read-out: hGLP-1-R cAMP EC50 average value). Also, in series [3] (setting [9]), the half-life is 17.3 h. The molecule also returned a bioavailability in series [3] (male, C57BL/6J) of 95%. Also, the Tmax in series [3] (setting [10]) turned out to be 8 h.

Source of the values: patent US10093713B2, “GIP-GLP-1 dual agonist compounds and methods” (priority 2013, dated 2018).
